Holding throughout (format): cell-based
The test system of one experiment is HL60. Nature of the experiment: Apoptosis assessment (annexin V/PI flow cytometry). As for the experimental part:
(§1) a total of 1×10^6 cellsderived from patients or cell lines were resuspended in 1 mL culture medium and incubated with the indicated dosages of OTX015 prepared freshly from 1 mM stock solution in DMSO. Control cells were incubated with the corresponding amount of dimethyl sulfoxide (DMSO 0.2-1%) to exclude toxicity of the excipient. Apoptotic cells were detected by cytofluorometric analysis using a FACScan (Becton Dickinson, Mountain View, USA). Cells were stained with propidium iodide (PI; 5 μg/mL; Becton Dickinson) and concomitantly for 15 minutes at RT with annexin-V-FITC (Becton Dickinson) according to the manufacturer's instructions to determine outer membrane phosphatidyl serine exposure. Data were analyzed with the Flowjo (Tree Star Inc., Ashland, USA) flow cytometry software.
A general note: A flow cytometer gives signals particle by particle.

The next experiment has as its system Jurkat. Nature of the experiment: Apoptosis assessment (annexin V/PI flow cytometry). On the procedure:
as §1

Another experiment has as its system K562. Kind of experiment: Apoptosis assessment (annexin V/PI flow cytometry). As for the experimental part:
as §1

Another experiment has as its system KG1a. Nature of the experiment: Apoptosis assessment (annexin V/PI flow cytometry). Conditions: 96 hours at 10 nM. As for the experimental part:
as §1

In a further experiment the test system is KG1. Nature of the experiment: Apoptosis assessment (annexin V/PI flow cytometry). As for the experimental part:
as §1

In a further experiment the test system is RS4-11. Kind of experiment: Apoptosis assessment (annexin V/PI flow cytometry). To be noted: RS4-11, 96 hours at 10 nM. On the procedure:
as §1

The next experiment concerns TOM-1. Kind of experiment: Apoptosis assessment (annexin V/PI flow cytometry). To be noted: TOM-1, 96 hours at 10 nM. As for the experimental part: as §1
A further experiment has as its system ALL and AML cell lines. Kind of experiment: Cell cycle analysis (PI flow cytometry). On the procedure:
For conventional cell-cycle analysis, 1×10^6 cells were harvested, washed in PBS, and fixed in 70% ice cold ethanol. Cells were incubated with 100 μg/mL RNAse (Sigma, Saint-Quentin Fallavier, France) and stained with PI (25 μg/mL, Becton Dickinson) followed by an incubation period of 30 minutes at 37° C. Subsequently, cell-cycle distribution was determined by cytofluorometric analysis. Data were analyzed with the Flowjo (Tree Star Inc., Ashland, USA) flow cytometry software.

Experiment [1] deals with BRD2, BRD3, BRD4 and c-MYC. Nature of the experiment: Immunoblot of BRD proteins and c-MYC in leukemia cell lines. Conditions: different leukemia cell lines, 100 nM, within 3 hours.
A further experiment deals with c-MYC. Kind of experiment: QT-PCR of c-MYC in leukemia cell lines. Conditions: all cell lines, 250 nM and 500 nM, 48 h. On the procedure:
The oncogene c-MYC is thought to be activated by BRD4 and is crucial for leukemia maintenance. […] We determined basal gene expression levels of c-MYC in different leukemia cell lines showing heterogeneous results without clear correlation to biologic effects of Compound (1-1) in regard to MTT, apoptosis or cell cycle effects (FIGS. 42A and 42B).
The total RNA obtained after extraction with TRIZOL (Invitrogen, Grand Island, USA) were titrated to 1 μg/uL and stored at −80° C. The complementary DNA (cDNA) was synthesized from 1 μg RNA. The RQ-PCR reactions (BRD2, BRD3, BRD4, c-MYC and ABL) were performed in a volume of 25 ul from a tenth of the cDNA (equivalent to 100 ng of RNA) on a thermocycler ABI7900HT in standard mode (1 cycle of 2 minutes at 50° C.-10 minutes at 95° C. followed by 50 cycles of 15 seconds at 95° C.-1 minute at 60° C.).

In experiment [2] the test system is BRD4, BRD3 and c-MYC in HL60. Kind of experiment: Immunoblot (protein level) in HL60. To be noted: HL60, 500 nM. As for the experimental part: (§2) FIGS. 43A-43L illustrate effects of OTX015 at the protein level for BRD 4, BRD2 and BRD 3 as well as c-MYC. […] AML cell lines HL60, K562 (FIGS. 43A-43C; FIG. 43D-43F) and ALL cell lines Jurkat and RS4-11 (FIG. 43G-43I; FIG. 4JD-43L) were treated with OTX015 at 500 nM and compared to controls exposed to according DMSO. At indicated time-points proteins were extracted and immunoblotted with BRD4, BRD3, BRD2 or c-MYC antibodies after gel electrophoresis. […] One representative experiment out of three is shown.
(§3) The membranes were blocked with LiCor blocking buffer (LiCor, Lincoln, Nebr., USA) and incubated with the respective primary antibody: anti-BRD4 (Epitomics 5716-1, Burlingame, USA), anti-BRD3 (ab56342, AbCam, UK), anti-BRD2 (ab37633, AbCam, UK), anti c-MYC (sc-764 (N262), Santa Cruz, USA) and anti-GAPDH (Invitrogen 398600, Grand Island, USA). Blots were stained with either goat anti-rabbit InfraRedDye 680RD or goat anti-mouse InfraRedDye 800CWsecondary antibody (LiCor). Membranes were imaged using a LiCor Odyssey scanner. Boxes were manually placed around each band of interest, which returned near-infrared fluorescent values of raw intensity with intra-lane background subtracted using Odyssey 3.0 analytical software (LiCor).
On the technique in general: Immunoblotting shows a protein as a band on a membrane.

The subject of experiment [3] is BRD4, BRD3 and c-MYC in K562. Kind of experiment: Immunoblot (protein level) in K562. Conditions: K562, 500 nM, starting after 24 h. On the procedure: as §2, §3

For the compound `Cc1sc2c(c1C)C(c1ccc(Cl)cc1)=N[C@@H](CC(=O)Nc1ccc(O)cc1)c1nnc(C)n1-2` [Compound (1-1), 2-[(6S)-4-(4-chlorophenyl)-2,3,9-trimethyl-6H-thienol[3,2-f]-[1,2,4]triazolo[4,3-a][1,4]diazepin-6-yl]-N-(4-hydroxyphenyl)acetamide dihydrate], the “delayed apoptosis after drug washout” value is “significant delayed apoptosis” in the experiment with HL60 (HL60, 6 hours exposure, read at 96 hours); “significant delayed apoptosis” in the experiment on Jurkat (6 hours exposure, read at 96 hours); “but not in the less sensitive K562” with K562 (K562, 6 hours exposure, read at 96 hours). The apoptosis with HL60 (HL60, 96 hours at 10 nM) was > 90%; in the experiment with Jurkat (96 hours at 10 nM) it was > 90%; in the experiment on K562 (K562, 96 hours at 10 nM), 20%; with KG1a, 45%; in the experiment with KG1 (KG1, 96 hours at 10 nM) it was > 90%; in the experiment with RS4-11 it was 30%. For the same compound, the apoptosis in the experiment on TOM-1 amounted to 70%. Besides, the apoptotic cells in the experiment on K562 (K562, at 24 hours) stood at 20%. Moreover, in the experiment on KG1 (KG1, 10 nM, 72 hours), the “induction of apoptosis at lower dose” value is recorded as “induced apoptosis after prolonged incubation”. The S phase fraction entry in the experiment with ALL and AML cell lines (48 h, AML and ALL cell lines) was “decreased S phase fraction in almost all cell lines”. Besides, the cell cycle arrest entry in the experiment on ALL and AML cell lines (all cell lines) is on record as “induced cell cycle arrest in all cell lines”. In addition, in experiment [1], the “regulation of BRD2, BRD3, BRD4 and c-MYC at the protein level” value was “rapid down-regulation of BRD2, BRD3 and BRD4 associated with c-MYC down-regulation”. Besides, the c-MYC gene expression result in the experiment with c-MYC is reported as “c-MYC downregulation was observed in all cell lines”. Moreover, the c-MYC protein level result in experiment [2] (24 h) was “transient downregulation”. Besides, the “BRD4 and BRD3 protein level” value in experiment [2] (72 h) is listed as “remained unaffected”. Moreover, in experiment [3], the “BRD4, BRD3 and c-MYC protein level” value was “downregulation of BRD4, BRD3 and c-MYC”.

The record behind these values is US20160158245A1, “PHARMACEUTICAL FORMULATION CONTAINING THIENOTRIAZOLODIAZEPINE COMPOUNDS” (ONCOETHIX GmbH, priority 2013, published 2016).
